Target: T1, endogenous AR (Mus musculus, UniProt P19091)
T1 construct: from tissue; host or cells: mouse LABC muscle (C57Bl/6 and hAR100Q mice); quadriceps (hAR100Q mice)
T1 sequence (P19091 1-899): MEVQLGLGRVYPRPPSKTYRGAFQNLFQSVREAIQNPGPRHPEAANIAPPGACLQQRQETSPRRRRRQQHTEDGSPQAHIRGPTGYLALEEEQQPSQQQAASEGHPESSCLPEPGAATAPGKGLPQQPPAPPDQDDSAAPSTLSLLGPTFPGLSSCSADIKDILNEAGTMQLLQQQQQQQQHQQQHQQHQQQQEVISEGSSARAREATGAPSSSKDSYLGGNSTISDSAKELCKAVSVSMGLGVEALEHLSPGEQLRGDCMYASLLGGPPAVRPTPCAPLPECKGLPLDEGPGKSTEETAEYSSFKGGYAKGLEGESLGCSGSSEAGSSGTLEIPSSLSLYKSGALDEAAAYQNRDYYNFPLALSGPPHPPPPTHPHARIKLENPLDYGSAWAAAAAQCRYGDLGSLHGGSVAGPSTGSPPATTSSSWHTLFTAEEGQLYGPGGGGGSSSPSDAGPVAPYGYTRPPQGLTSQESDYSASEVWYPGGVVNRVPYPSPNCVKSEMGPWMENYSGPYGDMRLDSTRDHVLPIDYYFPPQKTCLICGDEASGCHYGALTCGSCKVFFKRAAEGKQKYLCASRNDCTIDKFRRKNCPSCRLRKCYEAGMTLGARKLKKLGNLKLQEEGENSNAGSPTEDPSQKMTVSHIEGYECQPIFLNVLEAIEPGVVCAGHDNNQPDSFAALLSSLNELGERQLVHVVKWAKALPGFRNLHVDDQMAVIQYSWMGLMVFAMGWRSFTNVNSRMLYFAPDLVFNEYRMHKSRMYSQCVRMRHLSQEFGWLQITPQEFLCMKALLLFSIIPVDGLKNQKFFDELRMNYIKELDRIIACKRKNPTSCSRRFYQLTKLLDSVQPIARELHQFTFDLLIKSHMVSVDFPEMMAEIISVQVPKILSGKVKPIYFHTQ
Experiment: In vivo AR degradation in LABC muscle of C57Bl/6 mice (mouse AR ELISA), PK/PD
Procedure: Using six- to eight-week-old C57Bl/6 male mice, chow and water were provided ad libitum. Compounds were administered by oral gavage at the indicated dose using 5% dimethyl sulfoxide (DMSO), 95% (2% Tween 80, PEG 400) as the vehicle. Mice were euthanized by using Isoflurane inhalation (2-4% induction) followed by decapitation 24 hours post dose unless otherwise indicated. The levator ani/bulbocavernosus (LABC) muscle was dissected and immediately snap frozen and stored at −80° C. prior to analysis. Compound exposure was measured in serum and muscle lysates.
Anti-androgen receptor rabbit polyclonal antibody, clone PG-21 (Millipore; 06-680), was diluted in BupH carbonate-bicarbonate buffer (Thermo; 28382) to a concentration of 2 μg/mL and coated onto 96-well ELISA plates by incubating 50 μL per well overnight at 37° C. Plates were washed 4× with tris-buffered saline (TBS) buffer containing 0.1% Tween-20 (TBS-0.1% T) and blocked with 3% bovine serum albumin in TBS-T for 3 hours at room temperature (200 μL per well). AR peptide standard (Creative Biomart; Cat. No. AR-9788H) and samples were diluted in 1% bovine serum albumin (BSA)/TBS-0.05% T. After the blocking period, plates were washed as above, and 50 μL of standard and samples were added. Plates were incubated overnight at 4° C. with shaking. Following the incubation period, the plates were allowed to acclimate to room temperature with shaking for 1 hour. The detection antibody (anti-AR antibody, clone EPR1535 (abcam; ab194196)), conjugated to horse radish peroxidase (HRP), was diluted 1:15000 in 1% BSA/TBS-0.05% T and co-incubated with the samples by adding 50 μL to each well and shaking for 2 hours at room temperature. Plates were washed as above. Chemiluminescent substrate (ELISABright; Advansta; K-16025) was added to the plates (100 μL per well).
In vivo degradation of endogenous AR was evaluated for 95 compounds in murine levator ani/bulbocavernosus (LABC) muscle using a 30 mg/kg PO dose (see Example 1). The observed AR degradation for these 95 compounds ranged from 0-85% of AR in mouse LABC.

With `CC(C)N(CC1CCN(c2ncc(C(=O)N[C@H]3C(C)(C)[C@H](Oc4ccc(C#N)c(Cl)c4)C3(C)C)cn2)CC1)[C@H]1C[C@H](Oc2ccc3c(c2)C(=O)N(C2CCC(=O)NC2=O)C3=O)C1` (stereo partly drawn) [Compound A, N-((1r,3r)-3-(3-chloro-4-cyanophenoxy)-2,2,4,4-tetramethylcyclobutyl)-2-(4-((((1r,3r)-3-((2-(2,6-dioxopiperidin-3-yl)-1,3-dioxoisoindolin-5-yl)oxy)cyclobutyl)(isopropyl)amino)methyl)piperidin-1-yl)pyrimidine-5-carboxamide] the “time for AR levels in LABC muscle to return to normal post administration” value (30 mg/kg, once per day (QD) for 3 days) was “about 3 days”, the “time for AR to return to basal levels in LABC muscle” value (mouse LABC muscle) was 48 to 72 h and the “dose that achieves AR degradation of ~50%” value (mouse muscle) was “About 10 mg/kg”.

From US12496301B2, “Use of androgen receptor degrader for the treatment of spinal and bulbar muscular atrophy” (Arvinas Operations, Inc., priority 2023, dated 2025)
